Measurements as given in US20220204531A1, “DIBORONIC ACID COMPOUNDS AND METHODS OF MAKING AND USING THEREOF” (The Regents of The University of California, priority 2020, published 2022).
Values joined by “and” are separate entries in the source; they are usually repeats but may differ in a detail not shown here. Identical values can stand only once. Like-named read-outs stand apart in the source and are kept apart here. Each block holds one molecule with its values, some of them ahead of it.

Key:
[1] = Dissociation constant (Kd) by UV absorbance titration at 280 nm, galactose; type: binding; conditions: 1 mM DBA2+Br, 50 mM phosphate buffer pH 7.4
Method: (§1) The affinity and selectivity of DBA+ to glucose were then tested by comparing affinity with other five mono- or di-saccharides, particularly fructose, galactose, maltose, sucrose, and lactose. The UV absorption changes at 280 nm of DBA+ with the increase of sugar concentration was used for the affinity calculation. The absorbance values of 1 mM DBA+Br at 280 nm as function of sugar concentrations from 0 to 512 mM were measured in 50 mM Phosphate PBS (pH=7.4).
(§2) where sqrt refers to the square root 11 Equation (11) is used for non-linear fitting in Origin to obtain the Kd values.
(§3) The disassociation constant (Kd) of DBA2+ was calculated through non-linear curve fitting according to previous work (Stootman, et al., Analyst, 131:1145-1151 (2006)).

[2] = Dissociation constant (Kd) by UV absorbance titration at 280 nm, sucrose; type: binding; conditions: 1 mM DBA2+Br, 50 mM phosphate buffer pH 7.4
Method: as §1, §2, §3

[3] = Dissociation constant (Kd) by UV absorbance titration at 280 nm, fructose; type: binding; conditions: 1 mM DBA2+Br, 50 mM phosphate buffer pH 7.4
Method: as §1, §2, §3

[4] = pKa measurement by absorbance at 280 nm as a function of pH; type: physicochemical; conditions: for pKa: aqueous buffer solutions in 96-well microplate, 1 mM DBA2+Br, absorbance at 280 nm vs pH
Method: 100 mM buffer solutions for titration from pH 4 to pH 11.5 were prepared with different buffer systems to ensure the accuracy of pH for the following tests. NaAc/HAc was prepared for pH 4.05, 4.53, 5.03 and 5.53; Na2HPO4/NaH2PO4 was prepared for pH 6.00, 6.51, 6.99 and 7.51; NaB(OH)4/B(OH)3 was prepared for pH 8.05, 8.56 9.03 and 9.53; Na2CO3/NaHCO3 was prepared for pH 10.01, 10.54, 11.01 and 11.49.
50 μL of buffer solutions at different pH was added into 96 microplate wells. Then 50 μL of 2 mM DBA2+Br or a mixture of 2 mM DBA2+Br and 400 mM glucose in water was added to each well.
After shaking for 10 s and waiting for 10 min, the absorbance of each well at 280 nm was recorded on a microplate reader.
Due to the interaction between borate and glucose, the pH of the borate buffer solution is changed and thus the data for DBA2+Br/Glucose from pH 8 to 9.5 were abandoned. The rest of the data was plotted in Origin. The equilibrium equation for DBA2+ is as follows: […]
Then equation (4) is used for non-linear fitting in Origin, and pKa is defined as the pH at which half of the boronic acid is in the anionic state:
The same non-linear curve fitting also was used for the determination of pKa of DBAG2+G which has equilibrium equation as follow: […]
The pKa of DBA2+ before and after glucose binding was determined based on the differences in absorption spectra upon formation of tetrahedral borate anion in high pH media (Springsteen, et al., Tetrahedron, 58:5291-5300 (2002)).
pKa values were determined by curve fitting the changes in absorbance as a function of pH (FIG. 1).

[5] = Dissociation constant (Kd) by UV absorbance titration at 280 nm, glucose; type: binding; conditions: 1 mM DBA2+Br, 50 mM phosphate buffer pH 7.4
Method: 100 μL of glucose aqueous solutions with two-fold serial dilutions from 1024 mM to 0.5 mM were added into a 96 well microplate. Then 100 μL of 2 mM DBA2+Br in 100 mM phosphate buffer (pH=7.4) was added. After shaking for 10 s and waiting for 30 min, the absorbance of each well at 280 nm was recorded on a microplate reader.
as §1
The titration data was plotted. The disassociation equation for complex DBAG is as follows: […]
where DBAG refers to all three possible complexes, DBA2+G, DBA1+G and DBA-G, and DBA2 refers to all the unbound molecules, DBA2+, DBA1+ and DBA0.
as §2, §3

[6] = Dissociation constant (Kd) by UV absorbance titration at 280 nm, maltose; type: binding; conditions: 1 mM DBA2+Br, 50 mM phosphate buffer pH 7.4
Method: as §1, §2, §3

[7] = Dissociation constant (Kd) by UV absorbance titration at 280 nm, lactose; type: binding; conditions: 1 mM DBA2+Br, 50 mM phosphate buffer pH 7.4
Method: as §1, §2, §3

[8] = Effect of interference sugars on DBA2+ based conductimetric sensor (solution resistance); conditions: interference sugar 1 mM (maltose 10 mM), relative to resistance with glucose alone
Method: To a reservoir in a device set up as depicted shown in FIG. 3, 1 mL of the initial testing solution (2 mM DBA2+P and 2.5 mM Na3PO4, pH=7.6) was added. Direct current voltage is 0 mV due to the same material for two electrodes. Alternating current voltage was set at 20 mV, and the impedance was scanned vs. frequency from 10 Hz to 10 MHz (FIGS. 4A-4C). At 0.1 MHz, the capacitive reactance is very small compared to the resistance (R) of the solution, and thus this frequency was used for the following tests.
To the testing solution, trace quantities (2-5 μL) of a concentrated (0.5 or 2 M) glucose aqueous solution were continuously added. Glucose solutions were added every 30 minutes with concentrations spanning the diabetes-relevant range, (i.e. [glucose]=0-30 mM). The resistance of solution vs. time was collected for 30 min after each addition. After adding glucose to 30 mM, the testing solution was diluted to 12 mM by adding 1.5 mL of fresh testing solution. 1.5 mL was then discharged after mixing and the resistance of the remaining 1 mL solution was monitored.
Interference effects from other sugars, i.e. fructose, galactose, maltose, and lactose, were examined. Tests were performed at two different glucose concentrations typically experienced in diabetes, 5 mM (i.e. a physiological concentration of glucose) and 20 mM (i.e. a pathophysiological concentration of glucose) in 1 mL of testing solution. In these tests, interferent concentrations were higher or equal to 2.5 times the maximum plasma concentration (MPC). To the testing solution containing glucose, 2 μL or 5 μL of one of the interference solutions (containing fructose, galactose, maltose, or lactose) were added and the solution resistance (R) was monitored. The interference by 1 mM fructose or galactose was tested due to the considerable high affinity compared to the other […].

[9] = maximum physiological or therapeutic plasma concentration, cited from earlier work
[10] = presence of 200 mM glucose (DBA-G), read-out: pKa in the presence of glucose
[11] = testing solution with 5 mM glucose
[12] = testing solution with 20 mM glucose

Kd [1]: 16000 µM
Kd ([1]; listed as Formula III): ~16000 µM
Kd [3]: 1700 µM
Kd ([3]; listed as Formula III): ~1700 µM
pKa1 ([4]; absence of glucose): 9.0
pKa2 ([4]; absence of glucose): 9.7
pKa ([4]; absence of glucose, read-out: pKa): 9.4
pKa [4, 10]: 6.3
pKa1 ([4]; presence of 200 mM glucose): 5.9
pKa2 ([4]; presence of 200 mM glucose): 6.9
change in pKa for DBA2+ and DBA-G ([4]; upon glucose binding, centers around pH 7.4): ~3 unit
Kd [5]: 900 ± 100 µM
Compound: C[N+](C)(Cc1ccc(C[N+](C)(C)Cc2ccccc2B(O)O)cc1)Cc1ccccc1B(O)O [DBA2+]
Kd value for sucrose [2]: could not be determined due to their low affinity
Kd value for maltose [6]: could not be determined due to their low affinity
Kd value for lactose [7]: could not be determined due to their low affinity

Compound: C[N+]1(C)Cc2ccc(cc2)C[N+](C)(C)Cc2ccccc2[B-]2(O)OC3OC4CO[B-](O)(OC4C(O)C3O2)c2ccccc2C1 (centres unmarked) [DBA-G]
pKa [4, 10]: 6.3

Compound: O=C(CO)[C@@H](O)[C@H](O)[C@H](O)CO [Fructose, fructose]
Resistance increase [8, 11]: 3% and 2.9%
Resistance increase [8, 12]: −0.3%
Max plasma [sugar] [9]: 0.133 mM
Max plasma [sugar] ([9]; listed as fructose): 0.13 mM

Compound: O=C[C@H](O)[C@@H](O)[C@@H](O)[C@H](O)CO [Galactose, galactose]
Resistance increase [8, 11]: 1.4%
Resistance increase [8, 12]: 0.6%
Max plasma [sugar] [9]: 0.28 mM

Compound: OC[C@H]1O[C@@H](O[C@H]2[C@H](O)[C@@H](O)C(O)O[C@@H]2CO)[C@H](O)[C@@H](O)[C@H]1O (some centres unmarked) [Lactose, lactose]
Resistance increase [8, 11]: 0.2%
Resistance increase [8, 12]: 1.6%
Max plasma [sugar] [9]: 0.015 mM

Compound: OC[C@H]1O[C@H](O[C@H]2[C@H](O)[C@@H](O)[C@H](O)O[C@@H]2CO)[C@H](O)[C@@H](O)[C@@H]1O [Maltose, maltose]
Resistance increase [8, 11]: 0.4%
Resistance increase [8, 12]: 1.6%
Max plasma [sugar] [9]: 3.5 mM
